Assay results taken from patent US6576619B2 (CV Therapeutics, Inc., priority 1999, dated 2003).

Assays:
Rat Heart Rate [1] = test: Effect on rat heart rate (telemetry) after administration of pro-drug; format: in vivo, Sprague Dawley rats; settings: for decrease in heart rate: oral gavage, dose of 0.5 mg/kg
adenosine A1 = biological target: T1, adenosine A1 (Homo sapiens, UniProt P30542); settings: from Snowdy et al. abstract and WO 98/08855; cited from earlier work
T1 sequence (P30542 1-326): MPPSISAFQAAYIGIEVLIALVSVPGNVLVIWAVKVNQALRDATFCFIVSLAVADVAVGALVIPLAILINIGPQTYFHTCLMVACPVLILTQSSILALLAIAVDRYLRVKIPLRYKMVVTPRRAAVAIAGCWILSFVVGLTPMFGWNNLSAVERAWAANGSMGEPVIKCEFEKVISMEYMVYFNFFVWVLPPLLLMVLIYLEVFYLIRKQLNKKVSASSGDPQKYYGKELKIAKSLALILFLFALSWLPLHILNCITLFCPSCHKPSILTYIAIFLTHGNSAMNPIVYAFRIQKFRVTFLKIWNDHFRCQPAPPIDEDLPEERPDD

Rat Heart Rate [2] = test: Effect on rat heart rate (telemetry) after administration of pro-drug; format: in vivo, Sprague Dawley rats; parameters: key to Effect on Heart Rate: +++: Heart Rate decreased by 100-150 BPM; ++: Heart Rate decreased by 50-100 BPM; +: Heart rate decreased by 50 BPM; =/−: No reproducible effect on Heart Rate.; −: No effect on Heart Rate; settings: for Effect on Heart Rate: rat, oral gavage, 500 μGram dose, average of 3-6 rats
Description: Adult male and female Sprague Dawley rats were implanted with transducer/emitter modules of the Data Science Telemetry system (St. Paul, Minn.) to allow continuous monitoring of heart rate (HR). At the start of the experiment, basal HR was determine for 1 hour prior to gavage. A 500 μg dose of compounds prepared according to Examples 1-4 was administered to by oral gavage. The compounds were each prepared as stock solutions in DMSO and diluted at least 1:1000 in water for gavage. Following administration, HR was determined every five minutes. In these experiments, 3-6 rats were used to test each compounds. An average of the HR results are reported in Table 1, below and in FIGS. 1A, 2A, 3A and 4A.
Compound 1, identified above is an A1 Agonist. […] Thus, this in vivo assay is a measure of effect on heart rate following the oral administration of a pro-drug of a potent adenosine A1 agonist. The plasma concentrations of compound 1 was determined over time by cannulating the jugular of a separate specimen for subsequent blood collection. After a 24 hour recovery period, a pre-dose baseline HR as determined followed by gavage or IP injection of a compound being tested. Blood samples were taken and the concentration of compound 1 in the plasma was determined using LC/MS/MS methodologies.

Row | SMILES | Effect on Heart Rate (Rat Heart Rate [2]) | further results
1 | OC[C@H]1O[C@@H](n2cnc3c(N[C@@H]4CCOC4)ncnc32)[C@H](O)[C@@H]1O [Compound 1] |  | effect on heart rate of the sinus rhythm (Rat Heart Rate [1]; rat, IP, 0.025 mg): lowers the heart rate; adenosine A1 agonist activity (adenosine A1): potent, selective adenosine A1 agonist
2 | CC(=O)OC[C@H]1OC(n2cnc3c(N[C@@H]4CCOC4)ncnc32)[C@H](OC(C)=O)[C@@H]1OC(C)=O (stereo partly drawn) [Compound 2, (5-{6-[((3R)oxolan-3-yl)amino]purin-9-yl}(2R, 3R, 4R)-3,4-diacetyloxyoxolan-2-yl)methyl acetate] | +++ (Heart Rate decreased by 100-150 BPM) | reversibility of effect on heart rate by theophylline (Rat Heart Rate [1]; rats, oral gavage 0.5 mg/kg, then theophylline 7.5 mg/kg): reversible; decrease in heart rate (Rat Heart Rate [1]; rats): 100-150 beats per minute
3 | CCCC(=O)OC[C@H]1OC(n2cnc3c(N[C@@H]4CCOC4)ncnc32)[C@H](OC(=O)CCC)[C@@H]1OC(=O)CCC (stereo partly drawn) [Compound 4, (5-{6-[((3R)oxolan-3-yl)amino]purin-9-yl}(2R, 3R, 4R)-3,4-dibutanoyloxyoxolan-2-yl)methyl butanoate] | + (Heart rate decreased by 50 BPM) | 
4 | CC(C)C(=O)OC[C@H]1OC(n2cnc3c(N[C@@H]4CCOC4)ncnc32)[C@H](OC(=O)C(C)C)[C@@H]1OC(=O)C(C)C (stereo partly drawn) [Compound 6, (5-{6-[((3R)oxolan-3-yl)amino]purin-9-yl}(2R, 3R, 4R)-3,4-bis(2-methylpropanoyloxy)oxolan-2-yl)methyl 2-methylpropanoate] | ++ (Heart Rate decreased by 50-100 BPM) | 
5 | CCC(=O)OC[C@H]1OC(n2cnc3c(N[C@@H]4CCOC4)ncnc32)[C@H](OC(=O)CC)[C@@H]1OC(=O)CC (stereo partly drawn) [Compound 7, (2-{6-[((3R)oxolan-3-yl)amino]purin-9-yl}(3R, 4R, 5R)-4-propanoyloxy-5-(propanoyloxymethyl)oxolan-3-yl propanoate] | + (Heart rate decreased by 50 BPM) | 
6 | O=C(OC[C@H]1OC(n2cnc3c(N[C@@H]4CCOC4)ncnc32)[C@H](OC(=O)C2CCCC2)[C@@H]1OC(=O)C1CCCC1)C1CCCC1 (stereo partly drawn) [Compound 8, 2-{6-[((3R)oxolan-3-yl)amino]purin-9-yl}(3R, 4R, 5R)-4-cyclopentylcarbonyloxy-5-(cyclopentylcarbonyloxymethyl)oxolan-3-yl cyclopentanecarboxylate] | +++ (Heart Rate decreased by 100-150 BPM) | decrease in heart rate (Rat Heart Rate [1]; rats): 100-150 beats per minute
7 | CCOCC(=O)OC[C@H]1OC(n2cnc3c(N[C@@H]4CCOC4)ncnc32)[C@H](OC(=O)COCC)[C@@H]1OC(=O)COCC (stereo partly drawn) [Compound 9, 2-{6-[((3R)oxolan-3-yl)amino]purin-9-yl}(3R, 4R, 5R)-4-(2-ethoxyacetyloxy)-5-[(2-ethoxyacetyloxy)methyl]oxolan-3-yl 2-ethoxyacetate] | ++ (Heart Rate decreased by 50-100 BPM) | 
8 | O=C(COCc1ccccc1)OC[C@H]1OC(n2cnc3c(N[C@@H]4CCOC4)ncnc32)[C@H](OC(=O)COCc2ccccc2)[C@@H]1OC(=O)COCc1ccccc1 (stereo partly drawn) [Compound 10, (5-{6-[((3R)oxolan-3-yl)amino]purin-9-yl}(2R, 3R, 4R)-3,4-bis[2-(phenylmethoxy)acetyloxy]oxolan-2-yl)methyl 2-(phenylmethoxy)acetate] | + (Heart rate decreased by 50 BPM) | 
9 | O=C(Cc1ccc([N+](=O)[O-])cc1)OC[C@H]1OC(n2cnc3c(N[C@@H]4CCOC4)ncnc32)[C@H](OC(=O)Cc2ccc([N+](=O)[O-])cc2)[C@@H]1OC(=O)Cc1ccc([N+](=O)[O-])cc1 (stereo partly shown) [Compound 11] | − | 
10 | NCC(=O)OC[C@H]1OC(n2cnc3c(N[C@@H]4CCOC4)ncnc32)[C@H](OC(=O)CN)[C@@H]1OC(=O)CN (stereo partly drawn) [Compound 12, 2-{6[((3R)oxolan-3-yl)amino]purin-9-yl}(3R, 4R, 5R)-4-(2-aminoacetyloxy)-5-[(2-aminoacetyloxy)methyl]oxolan-3-yl 2-aminoacetate] | − | 
11 | O=C(Cc1ccccc1)OC[C@H]1OC(n2cnc3c(N[C@@H]4CCOC4)ncnc32)[C@H](OC(=O)Cc2ccccc2)[C@@H]1OC(=O)Cc1ccccc1 (stereo partly drawn) [Compound 13, (5-{6-[((3R)oxolan-3-yl)amino]purin-9-yl}(2R, 3R, 4R)-3,4-bis(2-phenylethanoyloxy)oxolan-2-yl)methyl 2-phenylethananoate] | − | 
12 | O=C(OC[C@H]1OC(n2cnc3c(N[C@@H]4CCOC4)ncnc32)[C@H](OC(=O)c2cccnc2)[C@@H]1OC(=O)c1cccnc1)c1cccnc1 (stereo partly drawn) [Compound 14, (5-{6-[((3R)oxolan-3-yl)amino]purin-9-yl}(2R, 3R, 4R)-3,4-di(3-pyridylcarbonyloxy)oxolan-2-yl)methyl pyridine-3-carboxylate] | + (Heart rate decreased by 50 BPM) | 
13 | CC(=O)OC[C@H]1OC(n2cnc3c(N[C@@H]4CCOC4)ncnc32)[C@H](OC(=O)C(C)C)[C@@H]1OC(=O)C(C)C (stereo partly drawn) [Compound 15, 2-{6-[((3R)oxolan-3-yl)amino]purin-9-yl}(3R, 4R, 5R)-5-(acetyloxymethyl)-4-(2-methylpropanoyloxy)oxolan-3-yl 2-methylpropanoate] | +++ (Heart Rate decreased by 100-150 BPM) | decrease in heart rate (Rat Heart Rate [1]; rats): 100-150 beats per minute
14 | CC(=O)OC[C@H]1OC(n2cnc3c(NC4CCOC4)ncnc32)[C@H](OC(=O)C2CCCC2)[C@@H]1OC(=O)C1CCCC1 (stereo partly shown) [Compound 16] | + (Heart rate decreased by 50 BPM) | 
15 | CC(C)C(=O)O[C@@H]1[C@@H](COC(=O)C2CCCC2)OC(n2cnc3c(N[C@@H]4CCOC4)ncnc32)[C@@H]1OC(=O)C(C)C (stereo partly drawn) [Compound 17, 2-{6-[((3R)oxolan-3-yl)amino]purin-9-yl}(3R, 4R, 5R)-5-(cyclopentylcarbonyloxymethyl)-4-(2-methylpropanoyloxy)oxolan-3-yl 2-methylpropanoate] | − | 
16 | CC(=O)O[C@@H]1[C@@H](COC(=O)C2CCCC2)OC(n2cnc3c(N[C@@H]4CCOC4)ncnc32)[C@@H]1OC(C)=O (stereo partly drawn) [Compound 18, 2-{6-[((3R)oxolan-3-yl)amino]purin-9-yl}(3R, 4R, 5R)-4-acetyloxy-5-(cyclopentylcarbonyloxymethyl)oxolan-3-yl acetate] | + (Heart rate decreased by 50 BPM) | 
17 | CC(=O)O[C@@H]1[C@@H](COC(=O)C(C)C)OC(n2cnc3c(N[C@@H]4CCOC4)ncnc32)[C@@H]1OC(C)=O (stereo partly drawn) [Compound 19, (5-{6-[((3R)oxolan-3-yl)amino]purin-9-yl}(2R, 3R, 4R)-3,4-diacetyloxyoxolan-2-yl)methyl 2-methylpropanoate] | +++ (Heart Rate decreased by 100-150 BPM) | decrease in heart rate (Rat Heart Rate [1]; rats): 100-150 beats per minute
18 | CC(C)C(=O)OC[C@H]1OC(n2cnc3c(NC4CCOC4)ncnc32)[C@H](OC(=O)C2CCCC2)[C@@H]1OC(=O)C1CCCC1 (stereo partly shown) [Compound 20] | − | 
19 | CC(=O)O[C@@H]1[C@H](OC(C)=O)[C@@H](COC(=O)[C@@H](N)C(C)C)O[C@H]1n1cnc2c(N[C@@H]3CCOC3)ncnc21 [Compound 21, (5-{6-[((3R)oxolan-3-yl)amino]purin-9-yl}(2R, 3R, 4R)-3,4-diacetyloxyoxolan-2-yl)methyl (2S)-2-amino-3-methylbutanoate] | + (Heart rate decreased by 50 BPM) | 
20 | CC(C)[C@H](N)C(=O)OC[C@H]1O[C@@H](n2cnc3c(N[C@@H]4CCOC4)ncnc32)[C@H](O)[C@@H]1O [Compound 28, (5-{6-[((3R)oxolan-3-yl)amino]purin-9-yl}(2R, 3S, 4R)-3,4-dihydroxyoxolan-2-yl)methyl (2S)-2-amino-3-methylbutanoate] | − | 
21 | CC(=O)O[C@@H]1[C@@H](CO)OC(n2cnc3c(N[C@@H]4CCOC4)ncnc32)[C@@H]1OC(C)=O (stereo partly drawn) [Compound 31, 2-{6-[((3R)oxolan-3-yl)amino]purin-9-yl}(3R, 4R, 5R)-4-acetyloxy-5-(hydroxymethyl)oxolan-3-yl acetate] |  | activity upon oral dosing in rats (Rat Heart Rate [2]; rats, oral dosing, compared with the triple pro-drugs (Table 1)): lower activity
22 | CC(=O)OC[C@H]1OC(n2cnc3c(N[C@@H]4CCOC4)ncnc32)[C@H](O)[C@@H]1O (stereo partly drawn) [Compound 34, (5-{6-[((3R)oxolan-3-yl)amino]purin-9-yl}(3S, 2R, 4R)-3,4-dihydroxyoxolan-2-yl)methyl acetate] | − | 
